Assay results taken from US9067989B2, “Eotaxin-2 (CCL24) inhibitors in inflammatory, autoimmune, and cardiovascular disorders” (THE MEDICAL RESEARCH, INFRASTRUCTURE, AND HEALTH SERVICES …, priority 2009, dated 2015).

Tested on: adjuvant induced arthritis
Assay: Adjuvant induced arthritis in Lewis rats
Type: in vivo, rat
Conditions: D8 100 μg 3x/week, methotrexate 0.25 mg/kg once weekly, from day 3, compared to PBS
Procedure: Adjuvant arthritis was induced in Lewis rats (six-week-old male Lewis rats obtained from Harlan, Israel) by injection of […]. […] was prepared by suspending heat-killed Mycobacterium Tuberculosis (Difco, Detroit, Mich.) in mineral oil at 10 mg/ml. Rats were injected intradermally with 100 μl adjuvant at the base of the tail. Arthritis developed by day 10 post injection.
Rats (8 per group) were treated by intraperitoneal (IP) injection with 3 monoclonal antibodies against eotaxin-2, (G7, G8, D8) 3×/week. Controls were treated with total mouse (non specific) IgG or PBS. Injections were started on the third day after adjuvant administration and were performed three times a week until the rats were sacrificed. […]
Arthritis severity was evaluated by measuring body weight, paw swelling, arthritic score and whole animal mobility. […]
Body weight in grams was measured every other day as an indicator of systemic inflammation.
Evaluation of Paw swelling. Ankle and wrist diameter in mm (to one place after the decimal point) were recorded three times a week using a caliper. […]
Finger and toe swelling was recorded according to their partial contribution: Ankles (feet): each toe scored 0.2; Wrist: each finger scored 0.25 Sum of all joints was calculated.
Whole animal Mobility was scored between 0-4, according to the following definitions: […]

With `CN(Cc1cnc2nc(N)nc(N)c2n1)c1ccc(C(=O)N[C@@H](CCC(=O)O)C(=O)O)cc1` [methotrexate] the “protection against development of arthritis (arthritic score), prevention mode” value was “significant, comparable protection” and the “protection against development of arthritis (arthritic score), prevention mode” value (listed as MTX) was “statistically significant effect (p<0.05)”.
